{"source": "patent US8999967B2", "about": "“Tricyclic fused ring inhibitors of hepatitis C” (Presidio Pharmaceuticals, Inc., priority 2010, dated 2015)"}
{"tested_on": "HCV 1b_Huh-Luc/Neo-ET cell line (genotype 1b replicon in Huh 7 cells)", "test": "HCV replicon assay (luciferase readout)", "type": "cell-based", "details": "Hepatitis C virus, HCV 1b replicon in Huh 7 cells, 72 h incubation, EC50 range class, read-out: Inhibition of HCV genotype 1b", "procedure": "Biological activity of the compounds of the invention was determined using an HCV replicon assay. The HCV 1b_Huh-Luc/Neo-ET cell line persistently expressing a bicistronic genotype 1b replicon in Huh 7 cells was obtained from ReBLikon GMBH. This cell line was used to test compound inhibition using luciferase enzyme activity readout as a measurement of compound inhibition of replicon levels.\nOn Day 1 (the day after plating cells), each compound is added in triplicate to the cells. Plates are incubated for 72 h prior to determining luciferase levels. Enzyme activity was measured using a Bright-Glo Kit (cat. number E2620) manufactured by Promega Corporation. The following equation was used to generate a percent control value for each compound. % Control=(Compound Luciferase Level/Control Luciferase Level)*100\nThe EC50 value was determined using GraphPad Prism and the following equation: Y=Bottom asymptote+(Top asymptote-Bottom asymptote)/(1+10^((Log EC50−X)*HillSlope))\nEC50 values of compounds are determined several times in the replicon assay to generate average EC50 values. […]", "units": {"EC50": "nM"}}
{"smiles": "COC(=O)N[C@@H](C(=O)N1CCC[C@H]1c1ncc(-c2ccc3c(c2)C(C)(C)c2ccc(-c4ccc5nc([C@@H]6CCCN6C(=O)[C@H](NC(=O)OC)c6ccccc6)[nH]c5c4)cc2O3)[nH]1)c1ccccc1", "note": "[Compound 134]", "EC50": "< 1"}
{"smiles": "COC(=O)N[C@H](C(=O)N1CSC[C@H]1c1ncc(-c2ccc3c(c2)Oc2ccc(-c4cnc([C@@H]5CSCN5C(=O)[C@@H](NC(=O)OC)C(C)C)[nH]4)cc2O3)[nH]1)C(C)C", "note": "[Compound 36]", "EC50": "< 1"}
{"smiles": "COC(=O)N[C@@H](C(=O)N1CSC[C@H]1c1ncc(-c2ccc3c(c2)Oc2ccc(-c4cnc([C@@H]5CSCN5C(=O)[C@H](NC(=O)OC)c5ccccc5)[nH]4)cc2O3)[nH]1)c1ccccc1", "note": "[Compound 37]", "EC50": "< 1"}
{"smiles": "CC[C@H](C)[C@H](NC(=O)OC)C(=O)N1CCC[C@H]1c1ncc(-c2cc3c(cc2F)Cc2cc(-c4cnc([C@@H]5CCCN5C(=O)[C@@H](NC(=O)OC)C5CCOCC5)[nH]4)ccc2O3)[nH]1", "note": "[Compound 59]", "EC50": "< 1"}
{"smiles": "COC(=O)N[C@H](C(=O)N1CCC[C@H]1c1ncc(-c2ccc3oc4cc(-c5cnc([C@@H]6CCCN6C(=O)[C@@H](NC(=O)OC)C(C)C)[nH]5)c(F)cc4c(=O)c3c2)[nH]1)C(C)C", "note": "[Example 22]", "EC50": "< 1"}
{"smiles": "COC(=O)N[C@H](C(=O)N1CCC[C@H]1c1ncc(-c2ccc3c(c2)Cc2ccc(-c4cnc([C@@H]5CCCN5C(=O)[C@@H](NC(=O)OC)C(C)C)[nH]4)cc2O3)[nH]1)C(C)C", "note": "[Example 6]", "EC50": "< 1"}
{"smiles": "C#CC[C@H](NC(=O)OC)C(=O)N1CCC[C@H]1c1ncc(-c2ccc3c(c2)Oc2ccc(-c4cnc([C@@H]5CCCN5C(=O)[C@H](CC#C)NC(=O)OC)[nH]4)cc2O3)[nH]1", "note": "[Compound 56]", "EC50": "< 1"}
{"smiles": "COC(=O)N[C@H](C(=O)N1CCC[C@H]1c1ncc(-c2ccc3c(=O)c4cc(-c5cnc([C@@H]6CCCN6C(=O)[C@H](NC(=O)OC6CCOCC6)c6ccccc6)[nH]5)ccc4oc3c2)[nH]1)C(C)C", "note": "[Example 19]", "EC50": "< 1"}
{"smiles": "COC(=O)N[C@H](C(=O)N1CCC[C@H]1c1ncc(-c2ccc3oc4cc(-c5cnc([C@@H]6CCCN6C(=O)[C@H](NC(=O)OC)c6ccccc6)[nH]5)ccc4c(=O)c3c2)[nH]1)C(C)C", "note": "[Example 18]", "EC50": "< 1"}
{"smiles": "C=CC[C@H](NC(=O)OC)C(=O)N1CCC[C@H]1c1ncc(-c2ccc3c(c2)Oc2ccc(-c4cnc([C@@H]5CCCN5C(=O)[C@H](CC=C)NC(=O)OC)[nH]4)cc2O3)[nH]1", "note": "[Compound 55]", "EC50": "< 1"}
{"smiles": "COC(=O)N[C@@H](C)C(=O)N1CCC[C@H]1c1ncc(-c2ccc3oc4cc(-c5cnc([C@@H]6CCCN6C(=O)[C@@H](NC(=O)OC)C(C)C)[nH]5)ccc4c(=O)c3c2)[nH]1", "note": "[Example 20]", "EC50": "< 1"}
{"smiles": "COC(=O)N[C@H](C(=O)N1CCC[C@H]1c1ncc(-c2ccc3c(c2)c(=O)c2ccc(-c4cnc([C@@H]5CCCN5C(=O)[C@@H](NC(=O)OC)C(C)C)[nH]4)cc2n3C)[nH]1)C(C)C", "note": "[Example 11]", "EC50": "< 1"}
{"smiles": "COC(=O)N[C@@H](C(=O)N[C@@H](C)c1ncc(-c2ccc3c(c2)Oc2ccc(-c4cnc([C@H](C)NC(=O)[C@H](NC(=O)OC)c5ccccc5)[nH]4)cc2O3)[nH]1)c1ccccc1", "note": "[Compound 38]", "EC50": "< 1"}
{"smiles": "O=C(N[C@@H](C(=O)N1CCC[C@H]1c1ncc(-c2ccc3oc4cc(-c5cnc([C@@H]6CCCN6C(=O)[C@H](NC(=O)OC6CCOCC6)c6ccccc6)[nH]5)c(F)cc4c(=O)c3c2)[nH]1)c1ccccc1)OC1CCOCC1", "note": "[Example 25]", "EC50": "< 1"}
{"smiles": "COC(=O)N[C@H](C(=O)N1CCC[C@H]1c1ncc(-c2ccc3nc4cc(-c5cnc([C@@H]6CCCN6C(=O)[C@@H](NC(=O)OC)C(C)C)[nH]5)ccc4nc3c2)[nH]1)C(C)C", "note": "[Example 1]", "EC50": "< 1"}
{"smiles": "COC(=O)N[C@H](C(=O)N1CCC[C@H]1c1ncc(-c2ccc3c(c2)Cc2ccc(-c4cnc([C@@H]5CCCN5C(=O)[C@@H](NC(=O)OC)C5CCCC5)[nH]4)cc2O3)[nH]1)C1CCCC1", "note": "[Compound 32]", "EC50": "< 1"}
{"smiles": "CC[C@H](C)[C@H](NC(=O)OC)C(=O)N1CCCC[C@H]1c1ncc(-c2ccc3oc4cc(-c5cnc([C@@H]6CCCN6C(=O)[C@@H](NC(=O)OC)[C@@H](C)CC)[nH]5)ccc4c(=O)c3c2)[nH]1", "note": "[Compound 132]", "EC50": "< 1"}
{"smiles": "COC(=O)N[C@H](C(=O)N1CCC[C@H]1c1ncc(-c2ccc3c(c2)Oc2ccc(-c4cnc([C@@H]5CCCN5C(=O)[C@@H](NC(=O)OC)C(C)C)[nH]4)cc2C(=O)N3)[nH]1)C(C)C", "note": "[Example 14]", "EC50": "10 to 999"}
{"smiles": "CC[C@H](C)[C@H](NC(=O)OC)C(=O)N1CCC[C@H]1c1ncc(-c2ccc3c(=O)c4cc(-c5cnc([C@@H]6CSCN6C(=O)[C@@H](NC(=O)OC)[C@@H](C)CC)[nH]5)ccc4oc3c2)[nH]1", "note": "[Compound 123]", "EC50": "< 1"}
{"smiles": "CC[C@H](C)[C@H](NC(=O)OC)C(=O)N1CCC[C@H]1c1ncc(-c2ccc3c(c2)Cc2ccc(-c4cnc([C@@H]5CCCN5C(=O)[C@@H](NC(=O)OC)[C@@H](C)CC)[nH]4)cc2O3)[nH]1", "note": "[Compound 31]", "EC50": "< 1"}
{"smiles": "COC(=O)N[C@H](C(=O)N1CCC[C@H]1c1ncc(-c2ccc3c(=O)c4cc(-c5cnc([C@@H]6COCCN6C(=O)[C@@H](NC(=O)OC)[C@@H](C)OC)[nH]5)ccc4oc3c2)[nH]1)[C@@H](C)OC", "note": "[Compound 131]", "EC50": "< 1"}
{"smiles": "COC(=O)N[C@H](C(=O)N1CCC[C@H]1c1ncc(-c2ccc3c(c2)Oc2ccc(-c4cnc([C@@H]5CSCN5C(=O)[C@@H](NC(=O)OC)C(C)C)[nH]4)cc2C3)[nH]1)C(C)C", "note": "[Compound 124]", "EC50": "< 1"}
{"smiles": "COC(=O)N[C@H](C(=O)N1CCC[C@H]1c1ncc(-c2ccc3c(c2)C(C)(C)c2ccc(-c4ccc5nc([C@@H]6CCCN6C(=O)[C@@H](NC(=O)OC)C(C)C)[nH]c5c4)cc2O3)[nH]1)C(C)C", "note": "[Compound 133]", "EC50": "< 1"}
{"smiles": "COC(=O)N[C@@H](C(=O)N1CCC[C@H]1c1ncc(-c2ccc3c(c2)Cc2cc(-c4cnc([C@@H]5CCCN5C(=O)[C@H](NC(=O)OC)c5ccccc5)[nH]4)ccc2O3)[nH]1)c1ccccc1", "note": "[Example 5]", "EC50": "< 1"}
{"smiles": "COC(=O)N[C@H](C(=O)N1CCC[C@H]1c1ncc(-c2ccc3c(=O)c4cc(-c5cnc([C@@H]6CCCN6C(=O)[C@@H](NC(=O)OC)C6CCCC6)[nH]5)ccc4oc3c2)[nH]1)C1CCCC1", "note": "[Compound 139]", "EC50": "< 1"}
{"smiles": "COC(=O)N[C@@H](C(=O)N1CCOC[C@H]1c1ncc(-c2ccc3c(c2)Oc2ccc(-c4cnc([C@@H]5COCCN5C(=O)[C@H](NC(=O)OC)c5ccccc5)[nH]4)cc2O3)[nH]1)c1ccccc1", "note": "[Compound 65]", "EC50": "< 1"}
